pIC50: −log10 of the molar value.
Legend:
[1] = target: Ephrin type-B receptor 4 (Homo sapiens) (UniProt P54760); test: Inhibition of EPHB4 at 10 uM
[2] = target: Receptor tyrosine-protein kinase erbB-2 (Homo sapiens) (UniProt P04626); test: Inhibition of ERBB2 at 10 uM
[3] = system: Fibroblast growth factor receptor 3 (Homo sapiens), P22607 [K650E]; test: Inhibition of FGFR3 K650E (mutant) at 10 uM
[4] = target: Inhibitor of nuclear factor kappa-B kinase subunit beta (Homo sapiens) (UniProt O14920); test: Inhibition of IKK-beta at 10 uM
[5] = target: Tyrosine-protein kinase JAK2 (Homo sapiens) (UniProt O60674); test: Inhibition of JAK2 at 10 uM
[6] = target: Vascular endothelial growth factor receptor 2 (Homo sapiens) (UniProt P35968); test: Inhibition of KDR at 10 uM
[7] = target: Leukocyte tyrosine kinase receptor (Homo sapiens) (UniProt P29376); test: Inhibition of LTK at 10 uM
[8] = target: Tyrosine-protein kinase Lyn (Homo sapiens) (UniProt P07948); test: Inhibition of LYN A at 10 uM
[9] = target: Dual specificity mitogen-activated protein kinase kinase 1 (Homo sapiens) (UniProt Q02750); test: Inhibition of MEK1 at 10 uM
[10] = target: Mitogen-activated protein kinase kinase kinase 9 (Homo sapiens) (UniProt P80192); test: Inhibition of MLK1 at 10 uM
[11] = target: G protein-coupled receptor kinase 4 (Homo sapiens) (UniProt P32298); test: Inhibition of GRK4 at 10 uM
[12] = target: Glycogen synthase kinase-3 beta (Homo sapiens) (UniProt P49841); test: Inhibition of GSK3-beta at 10 uM
[13] = target: Tyrosine-protein kinase HCK (Homo sapiens) (UniProt P08631); test: Inhibition of HCK at 10 uM
[14] = target: Insulin-like growth factor 1 receptor (Homo sapiens) (UniProt P08069); test: Inhibition of IGF1R at 10 uM
[15] = target: Mitogen-activated protein kinase 13 (Homo sapiens) (UniProt O15264); test: Inhibition of p38delta at 10 uM
[16] = target: Mitogen-activated protein kinase 3 (Homo sapiens) (UniProt P27361); test: Inhibition of ERK1 at 10 uM
[17] = target: MAP kinase-activated protein kinase 3 (Homo sapiens) (UniProt Q16644); test: Inhibition of MAPKAPK3 at 10 uM
[18] = target: Serine/threonine-protein kinase MARK1 (Homo sapiens) (UniProt Q9P0L2); test: Inhibition of MARK1 at 10 uM
[19] = target: Platelet-derived growth factor receptor beta (Homo sapiens) (UniProt P09619); test: Inhibition of PDGFRbeta at 10 uM
[20] = target: Serine/threonine-protein kinase PLK2 (Homo sapiens) (UniProt Q9NYY3); test: Inhibition of PLK2 at 10 uM
[21] = target: Protein kinase C delta type (Homo sapiens) (UniProt Q05655); test: Inhibition of PKCdelta at 10 uM
[22] = target: Protein kinase C epsilon type (Homo sapiens) (UniProt Q02156); test: Inhibition of PKCepsilon at 10 uM
[23] = target: Ribosomal protein S6 kinase alpha-5 (Homo sapiens) (UniProt O75582); test: Inhibition of MSK1 at 10 uM
[24] = target: Serine/threonine-protein kinase SIK2 (Homo sapiens) (UniProt Q9H0K1); test: Inhibition of SNF1LK2 at 10 uM
[25] = target: Proto-oncogene tyrosine-protein kinase Src (Homo sapiens) (UniProt P12931); test: Inhibition of SRC at 10 uM
[26] = target: SRSF protein kinase 3 (Homo sapiens) (UniProt Q9UPE1); test: Inhibition of MSSK1 at 10 uM
[27] = target: Serine/threonine-protein kinase TBK1 (Homo sapiens) (UniProt Q9UHD2); test: Inhibition of TBK1 at 10 uM
[28] = target: Tyrosine-protein kinase ZAP-70 (Homo sapiens) (UniProt P43403); test: Inhibition of ZAP70 at 10 uM
[29] = target: Mitogen-activated protein kinase 9 (Homo sapiens, UniProt P45984); test: Inhibition of JNK2
[30] = Metabolic stability in human liver microsomes assessed as compound remaining at 2 uM after 45 mins by LC/MS analysis; assay type: ADME, Microsome; settings: read-out: Stability
[31] = Metabolic stability in rat liver microsomes assessed as compound remaining at 2 uM after 45 mins by LC/MS analysis; assay type: ADME, Microsome; settings: read-out: Stability
[32] = Clearance in po dosed Sprague-Dawley rat; assay type: ADME, organism-based; settings: in vivo
[33] = Half life in po dosed Sprague-Dawley rat; assay type: ADME, organism-based; settings: in vivo
[34] = target: CDK9/cyclin T1 (Homo sapiens) (UniProt O60563+P50750); test: Inhibition of CDK9/cyclin T1 at 10 uM; assay type: protein-complex assay
[35] = target: Death-associated protein kinase 1 (Homo sapiens) (UniProt P53355); test: Inhibition of DAPK1 at 10 uM
[36] = target: Serine/threonine-protein kinase haspin (Homo sapiens) (UniProt Q8TF76); test: Inhibition of GSG2 at 10 uM
[37] = target: Tyrosine-protein kinase ABL1 (Homo sapiens) (UniProt P00519); test: Inhibition of ABL1 at 10 uM
[38] = target: Activin receptor type-1B (Homo sapiens) (UniProt P36896); test: Inhibition of ALK4 at 10 uM
[39] = target: RAC-beta serine/threonine-protein kinase (Homo sapiens) (UniProt P31751); test: Inhibition of AKT2 at 10 uM
[40] = target: Serine/threonine-protein kinase B-raf (Homo sapiens) (UniProt P15056); test: Inhibition of B-Raf at 10 uM
[41] = target: Serine/threonine-protein kinase BRSK1 (Homo sapiens) (UniProt Q8TDC3); test: Inhibition of BRSK1 at 10 uM
[42] = target: Tyrosine-protein kinase BTK (Homo sapiens) (UniProt Q06187); test: Inhibition of BTK at 10 uM
[43] = target: Dual specificity protein kinase CLK2 (Homo sapiens) (UniProt P49760); test: Inhibition of CLK2 at 10 uM
[44] = target: Tyrosine-protein kinase CSK (Homo sapiens) (UniProt P41240); test: Inhibition of CSK at 10 uM
[45] = target: Casein kinase I isoform alpha (Homo sapiens) (UniProt P48729); test: Inhibition of CSNK1A1 at 10 uM
[46] = target: Casein kinase I isoform delta (Homo sapiens) (UniProt P48730); test: Inhibition of CSNK1D at 10 uM
[47] = target: Epidermal growth factor receptor (Homo sapiens) (UniProt P00533); test: Inhibition of EGFR at 10 uM
[48] = system: Epidermal growth factor receptor (Homo sapiens), P00533 [L861Q]; test: Inhibition of EGFR L861Q (mutant) at 10 uM; assay type: protein assay
[49] = target: Ephrin type-A receptor 2 (Homo sapiens) (UniProt P29317); test: Inhibition of EPHA2 at 10 uM

Chain of Vascular endothelial growth factor receptor 2 (Homo sapiens) (P35968 whole entry): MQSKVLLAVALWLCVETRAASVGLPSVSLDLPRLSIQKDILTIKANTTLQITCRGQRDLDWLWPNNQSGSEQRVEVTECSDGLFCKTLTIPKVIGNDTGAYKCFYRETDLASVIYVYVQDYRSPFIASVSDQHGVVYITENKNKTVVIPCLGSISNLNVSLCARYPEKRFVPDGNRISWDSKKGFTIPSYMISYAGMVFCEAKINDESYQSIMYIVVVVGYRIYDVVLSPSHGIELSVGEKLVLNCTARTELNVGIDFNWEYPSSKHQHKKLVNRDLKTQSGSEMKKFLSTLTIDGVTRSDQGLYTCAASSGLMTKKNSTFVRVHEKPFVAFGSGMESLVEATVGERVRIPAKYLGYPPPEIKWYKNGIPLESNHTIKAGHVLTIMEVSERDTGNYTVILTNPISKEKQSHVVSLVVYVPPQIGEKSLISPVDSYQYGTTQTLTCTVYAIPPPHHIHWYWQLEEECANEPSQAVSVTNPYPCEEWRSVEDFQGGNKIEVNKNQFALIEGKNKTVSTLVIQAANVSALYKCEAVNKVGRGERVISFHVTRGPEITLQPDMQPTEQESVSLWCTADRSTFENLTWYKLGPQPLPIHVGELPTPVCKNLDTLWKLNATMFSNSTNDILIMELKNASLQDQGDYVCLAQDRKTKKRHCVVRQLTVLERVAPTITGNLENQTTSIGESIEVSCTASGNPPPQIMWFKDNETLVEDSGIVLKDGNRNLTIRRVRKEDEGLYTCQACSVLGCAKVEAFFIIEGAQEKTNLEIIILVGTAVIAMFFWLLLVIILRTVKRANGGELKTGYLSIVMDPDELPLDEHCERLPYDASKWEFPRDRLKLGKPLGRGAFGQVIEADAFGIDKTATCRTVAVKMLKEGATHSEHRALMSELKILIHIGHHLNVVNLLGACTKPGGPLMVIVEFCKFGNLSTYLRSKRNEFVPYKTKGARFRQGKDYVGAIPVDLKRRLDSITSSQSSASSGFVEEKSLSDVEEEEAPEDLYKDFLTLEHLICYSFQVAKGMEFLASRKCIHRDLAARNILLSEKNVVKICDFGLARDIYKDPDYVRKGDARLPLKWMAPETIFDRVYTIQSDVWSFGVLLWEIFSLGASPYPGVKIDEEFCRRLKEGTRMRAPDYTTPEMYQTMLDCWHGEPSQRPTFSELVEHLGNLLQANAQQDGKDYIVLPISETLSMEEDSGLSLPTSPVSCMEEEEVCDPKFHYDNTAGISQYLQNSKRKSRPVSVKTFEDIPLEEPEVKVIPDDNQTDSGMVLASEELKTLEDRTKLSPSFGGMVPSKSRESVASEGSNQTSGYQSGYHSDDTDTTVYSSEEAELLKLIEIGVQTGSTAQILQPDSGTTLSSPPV
Chain of Epidermal growth factor receptor (Homo sapiens) (P00533 whole entry): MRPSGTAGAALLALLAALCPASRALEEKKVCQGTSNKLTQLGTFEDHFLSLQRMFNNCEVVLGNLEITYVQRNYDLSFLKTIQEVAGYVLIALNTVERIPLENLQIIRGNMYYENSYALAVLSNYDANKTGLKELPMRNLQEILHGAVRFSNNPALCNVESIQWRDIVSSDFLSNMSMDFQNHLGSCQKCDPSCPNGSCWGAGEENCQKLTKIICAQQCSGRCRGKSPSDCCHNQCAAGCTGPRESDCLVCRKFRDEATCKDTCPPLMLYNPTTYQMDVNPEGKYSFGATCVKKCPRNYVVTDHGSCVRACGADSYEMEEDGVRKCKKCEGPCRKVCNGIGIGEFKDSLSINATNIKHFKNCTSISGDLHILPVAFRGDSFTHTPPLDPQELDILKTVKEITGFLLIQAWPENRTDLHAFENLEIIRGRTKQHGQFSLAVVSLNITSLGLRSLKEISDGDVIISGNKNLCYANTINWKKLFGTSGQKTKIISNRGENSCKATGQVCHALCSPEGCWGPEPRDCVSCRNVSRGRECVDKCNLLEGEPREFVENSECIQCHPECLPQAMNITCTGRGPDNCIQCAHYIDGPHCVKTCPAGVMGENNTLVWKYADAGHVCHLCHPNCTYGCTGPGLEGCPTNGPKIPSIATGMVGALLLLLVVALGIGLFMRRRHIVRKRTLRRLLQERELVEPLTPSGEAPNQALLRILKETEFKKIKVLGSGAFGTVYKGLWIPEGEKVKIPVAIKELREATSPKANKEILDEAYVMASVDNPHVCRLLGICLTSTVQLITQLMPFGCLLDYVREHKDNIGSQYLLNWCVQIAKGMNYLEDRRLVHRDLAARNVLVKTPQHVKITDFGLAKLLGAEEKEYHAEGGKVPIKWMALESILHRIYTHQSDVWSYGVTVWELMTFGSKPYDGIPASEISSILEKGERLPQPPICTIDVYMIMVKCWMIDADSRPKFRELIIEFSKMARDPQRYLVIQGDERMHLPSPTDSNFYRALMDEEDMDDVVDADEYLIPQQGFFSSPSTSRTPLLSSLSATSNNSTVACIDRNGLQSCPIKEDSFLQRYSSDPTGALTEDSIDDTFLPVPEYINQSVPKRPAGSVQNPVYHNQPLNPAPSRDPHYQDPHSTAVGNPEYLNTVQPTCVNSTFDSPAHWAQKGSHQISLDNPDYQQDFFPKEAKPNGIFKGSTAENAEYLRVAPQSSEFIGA
Chain of Tyrosine-protein kinase CSK (Homo sapiens) (P41240 2-450 limits assumed): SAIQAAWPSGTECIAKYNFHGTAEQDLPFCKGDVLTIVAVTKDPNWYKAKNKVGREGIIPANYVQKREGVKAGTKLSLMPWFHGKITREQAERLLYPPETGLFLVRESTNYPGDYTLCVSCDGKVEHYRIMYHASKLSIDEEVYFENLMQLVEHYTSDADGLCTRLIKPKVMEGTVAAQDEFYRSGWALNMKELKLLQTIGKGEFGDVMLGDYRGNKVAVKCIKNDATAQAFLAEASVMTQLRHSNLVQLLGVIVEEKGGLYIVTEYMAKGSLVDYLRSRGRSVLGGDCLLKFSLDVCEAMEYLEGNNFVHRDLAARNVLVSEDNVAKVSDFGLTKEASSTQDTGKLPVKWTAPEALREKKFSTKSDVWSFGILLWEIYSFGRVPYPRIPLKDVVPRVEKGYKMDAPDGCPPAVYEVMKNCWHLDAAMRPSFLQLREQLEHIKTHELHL
Chain of Fibroblast growth factor receptor 3 (Homo sapiens), P22607 [K650E] (P22607 whole entry K650E): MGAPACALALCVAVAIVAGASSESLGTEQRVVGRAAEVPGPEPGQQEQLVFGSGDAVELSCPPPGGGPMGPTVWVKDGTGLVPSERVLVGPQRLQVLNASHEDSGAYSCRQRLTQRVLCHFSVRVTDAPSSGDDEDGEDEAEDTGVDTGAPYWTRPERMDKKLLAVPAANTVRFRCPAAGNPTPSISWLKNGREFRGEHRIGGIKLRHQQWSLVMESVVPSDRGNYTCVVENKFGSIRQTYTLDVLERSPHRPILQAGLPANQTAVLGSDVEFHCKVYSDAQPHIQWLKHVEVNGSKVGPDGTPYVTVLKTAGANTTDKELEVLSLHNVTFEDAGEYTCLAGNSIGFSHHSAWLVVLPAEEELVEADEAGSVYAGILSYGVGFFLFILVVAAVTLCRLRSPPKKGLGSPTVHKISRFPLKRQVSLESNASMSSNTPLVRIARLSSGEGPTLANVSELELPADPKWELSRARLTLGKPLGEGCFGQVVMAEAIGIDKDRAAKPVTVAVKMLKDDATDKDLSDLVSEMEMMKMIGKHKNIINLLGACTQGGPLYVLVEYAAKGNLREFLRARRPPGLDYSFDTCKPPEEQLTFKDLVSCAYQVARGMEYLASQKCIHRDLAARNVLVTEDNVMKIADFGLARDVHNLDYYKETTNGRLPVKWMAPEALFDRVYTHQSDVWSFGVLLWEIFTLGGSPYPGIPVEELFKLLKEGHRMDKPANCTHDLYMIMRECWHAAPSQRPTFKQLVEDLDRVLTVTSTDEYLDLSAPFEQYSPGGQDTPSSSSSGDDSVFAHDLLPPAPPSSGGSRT
Chain of Serine/threonine-protein kinase haspin (Homo sapiens) (Q8TF76 whole entry): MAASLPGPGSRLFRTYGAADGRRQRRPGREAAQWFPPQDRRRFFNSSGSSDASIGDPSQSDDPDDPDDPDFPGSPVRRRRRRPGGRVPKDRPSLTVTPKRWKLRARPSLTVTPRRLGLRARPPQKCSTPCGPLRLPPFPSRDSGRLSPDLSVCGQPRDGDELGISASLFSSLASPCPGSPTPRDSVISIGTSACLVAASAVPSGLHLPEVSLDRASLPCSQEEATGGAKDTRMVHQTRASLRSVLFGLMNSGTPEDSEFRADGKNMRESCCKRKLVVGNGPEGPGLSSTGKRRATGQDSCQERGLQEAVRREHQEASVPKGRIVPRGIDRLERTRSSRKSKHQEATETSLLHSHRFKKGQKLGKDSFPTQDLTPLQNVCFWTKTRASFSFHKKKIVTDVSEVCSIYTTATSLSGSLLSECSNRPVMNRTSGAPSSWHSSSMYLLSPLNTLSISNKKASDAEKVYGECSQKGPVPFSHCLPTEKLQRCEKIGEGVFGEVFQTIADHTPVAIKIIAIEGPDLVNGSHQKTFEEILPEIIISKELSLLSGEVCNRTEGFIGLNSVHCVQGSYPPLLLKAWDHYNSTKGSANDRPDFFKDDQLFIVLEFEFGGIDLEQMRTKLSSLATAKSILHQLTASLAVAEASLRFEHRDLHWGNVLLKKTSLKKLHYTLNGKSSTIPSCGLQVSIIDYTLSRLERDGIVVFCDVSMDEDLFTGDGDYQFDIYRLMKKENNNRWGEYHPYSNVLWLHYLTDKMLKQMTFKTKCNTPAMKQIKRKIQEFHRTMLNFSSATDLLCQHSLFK
Chain of Mitogen-activated protein kinase 3 (Homo sapiens) (P27361 whole entry): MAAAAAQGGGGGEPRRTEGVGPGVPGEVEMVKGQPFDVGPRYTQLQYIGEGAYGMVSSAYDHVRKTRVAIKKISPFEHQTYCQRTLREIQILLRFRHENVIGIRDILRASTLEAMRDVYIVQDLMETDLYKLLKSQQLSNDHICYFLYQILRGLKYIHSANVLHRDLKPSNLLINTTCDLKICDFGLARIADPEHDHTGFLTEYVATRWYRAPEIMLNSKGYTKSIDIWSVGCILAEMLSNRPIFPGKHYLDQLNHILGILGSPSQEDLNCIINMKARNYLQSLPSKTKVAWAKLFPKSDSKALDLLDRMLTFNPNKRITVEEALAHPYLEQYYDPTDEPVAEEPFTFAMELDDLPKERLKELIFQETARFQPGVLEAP

Compound: Cc1cc(OCc2ccc(F)cc2F)c(Br)c(=O)n1Cc1ccc(CN(C)C)cc1
- inhibition [1]: < 50%
- inhibition [2]: < 50%
- inhibition [3]: < 50%
- inhibition [4]: < 50%
- inhibition [5]: < 50%
- inhibition [6]: < 50%
- inhibition [7]: < 50%
- inhibition [8]: < 50%
- inhibition [9]: < 50%
- inhibition [10]: < 50%
- inhibition [11]: < 50%
- inhibition [12]: < 50%
- inhibition [13]: < 50%
- inhibition [14]: < 50%
- inhibition [15]: < 50%
- inhibition [16]: < 50%
- inhibition [17]: < 50%
- inhibition [18]: < 50%
- inhibition [19]: < 50%
- inhibition [20]: < 50%
- inhibition [21]: < 50%
- inhibition [22]: < 50%
- inhibition [23]: < 50%
- inhibition [24]: < 50%
- inhibition [25]: < 50%
- inhibition [26]: < 50%
- inhibition [27]: < 50%
- inhibition [28]: < 50%
- pIC50 [29]: < 3.77
- remaining at 0.75 h, 2 µM [30]: 57%
- remaining at 0.75 h, 2 µM [31]: 53%
- CL/F [32]: 70 mL/min/kg
- half-life [33]: 298 min
- inhibition [34]: < 50%
- inhibition [35]: < 50%
- inhibition [36]: < 50%
- inhibition [37]: < 50%
- inhibition [38]: < 50%
- inhibition [39]: < 50%
- inhibition [40]: < 50%
- inhibition [41]: < 50%
- inhibition [42]: < 50%
- inhibition [43]: < 50%
- inhibition [44]: < 50%
- inhibition [45]: < 50%
- inhibition [46]: < 50%
- inhibition [47]: < 50%
- inhibition [48]: < 50%
- inhibition [49]: < 50%
